Data: US20180360100A1 (SCIENTIFIC HOLDINGS, LLC, priority 2017, published 2018)
Entries after “also recorded” stand apart in the source; their conditions may differ.

What was measured:
cannabinoid receptors [1] = details: cited from earlier work
CB1 = CB1 (Homo sapiens, UniProt P21554); details: cited from earlier work
CB2 = CB2 (Homo sapiens, UniProt P34972); details: cited from earlier work
[2] = Solubilities of pigments in diluents, terpenes and cannabinoids; details: in OBP (dipropylene glycol), nexus, terpenes, cannabinoids
Description: Solubilities of Pigments. The present disclosure encompasses solubility embodiments.

cannabinoid receptors [3] = details: cited from earlier work; remark: listed apart in the source

Chain of CB1 (P21554 whole entry, species assumed): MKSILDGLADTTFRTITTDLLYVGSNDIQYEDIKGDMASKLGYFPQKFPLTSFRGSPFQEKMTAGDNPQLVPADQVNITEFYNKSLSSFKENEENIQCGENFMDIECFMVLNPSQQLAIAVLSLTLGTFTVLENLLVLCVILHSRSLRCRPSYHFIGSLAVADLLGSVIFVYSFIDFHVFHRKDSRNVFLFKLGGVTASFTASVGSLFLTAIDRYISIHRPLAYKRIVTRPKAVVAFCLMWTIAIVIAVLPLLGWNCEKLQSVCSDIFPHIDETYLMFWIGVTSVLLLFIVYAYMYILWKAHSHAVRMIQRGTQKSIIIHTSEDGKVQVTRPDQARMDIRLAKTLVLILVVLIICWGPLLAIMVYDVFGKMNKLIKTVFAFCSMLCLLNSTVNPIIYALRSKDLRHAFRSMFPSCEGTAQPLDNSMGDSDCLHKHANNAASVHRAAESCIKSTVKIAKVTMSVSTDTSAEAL
Chain of CB2 (P34972 whole entry, species assumed): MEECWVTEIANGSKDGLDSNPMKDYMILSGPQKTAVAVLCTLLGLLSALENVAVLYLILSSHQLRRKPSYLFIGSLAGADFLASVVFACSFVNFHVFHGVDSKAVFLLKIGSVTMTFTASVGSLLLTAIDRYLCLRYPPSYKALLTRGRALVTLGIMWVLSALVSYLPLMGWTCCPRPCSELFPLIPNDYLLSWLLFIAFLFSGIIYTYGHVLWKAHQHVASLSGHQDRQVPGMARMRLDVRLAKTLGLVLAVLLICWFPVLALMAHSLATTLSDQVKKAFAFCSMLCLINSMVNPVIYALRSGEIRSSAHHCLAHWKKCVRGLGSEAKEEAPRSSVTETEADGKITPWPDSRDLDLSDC

CCCCC/C=C\C/C=C\CCCCCCCC(=O)OC(CO)CO [2-linoleoyl-glycerol]
potentiation of binding of 2-arachidonoyl-glycerol (cannabinoid receptors [1]): potentiate the binding of 2-arachidonoyl-glycerol
binding to CB1 (CB1): do not bind
binding to CB2 (CB2): do not bind

CCCCCCCCCCCCCCCC(=O)OC(CO)CO [2-palmitoyl-glycerol]
potentiation of binding of 2-arachidonoyl-glycerol (cannabinoid receptors [1]): potentiate the binding of 2-arachidonoyl-glycerol
binding to CB1 (CB1): do not bind
binding to CB2 (CB2): do not bind

CC1=C[C@H](O)CC(C)(C)[C@H]1/C=C/C(C)=C/C=C/C(C)=C/C=C/C=C(C)/C=C/C=C(C)/C=C/C1=C(C)C[C@@H](O)CC1(C)C [Lutein]
solubility of pigment [2]: soluble in both obp, nexus, terpenes, and cannabinoids

CCCCCCCCCCCCCCCC(=O)NCCO [palmitoylethanolamine]
binding to CB1 (CB1): do not bind
potentiation of activity of ligands of cannabinoid receptors (cannabinoid receptors [3]): potentiate activity of ligands of cannabinoid receptors
binding to CB2 (CB2): do not bind

CCCCCCCCCCCCCCCCCC(=O)NCCO [stearoylethanolamine]
binding to CB1 (CB1): do not bind
potentiation of activity of ligands of cannabinoid receptors (cannabinoid receptors [3]): potentiate activity of ligands of cannabinoid receptors
binding to CB2 (CB2): do not bind

Anthocyanins
solubility of pigment [2]: only soluble in OBP (dipropylene glycol), not it nexus or cannabinoids alone; also recorded: only soluble in dipropylene glycol (i.e. OBP), not in nexus or cannabinoids alone

carotene
solubility of pigment [2]: soluble in both obp, nexus, terpenes, and cannabinoids
